The molecules below were run against USP30 (Homo sapiens (Human), UniProt Q70CQ3) (assay: USP30 biochemical IC50 assay). Settings: fluorescence polarisation, TAMRA labelled peptide linked to ubiquitin as substrate; enzyme and compound incubated 30 min at room temp; read-out: IC50 range.
Method: Reactions were performed in duplicate in black 384 well plates (small volume, Greiner 784076) in a final reaction volume of 21 μl. Either 1 μl of 50% DMSO or diluted compound was added to the plate. USP30 was diluted in reaction buffer (40 mM Tris, pH 7.5, 0.005% Tween 20, 0.5 mg/ml BSA, 5 mM beta-mercaptoethanol) to the equivalent of 0.05 μl/well and 10 μl of diluted USP30 was added to the compound. Enzyme and compound were incubated for 30 min at room temp. Reactions were initiated by the addition of 50 nM of TAMRA labelled peptide linked to ubiquitin via an iso-peptide bond as fluorescence polarisation substrate. Reactions were read immediately after addition of substrate and following a 2 h incubation at room temperature. Readings were performed on a Pherastar Plus (BMG Labtech). λ Excitation 540 nm; λ Emission 590 nm.

Sequence of USP30 (Q70CQ3 57-517): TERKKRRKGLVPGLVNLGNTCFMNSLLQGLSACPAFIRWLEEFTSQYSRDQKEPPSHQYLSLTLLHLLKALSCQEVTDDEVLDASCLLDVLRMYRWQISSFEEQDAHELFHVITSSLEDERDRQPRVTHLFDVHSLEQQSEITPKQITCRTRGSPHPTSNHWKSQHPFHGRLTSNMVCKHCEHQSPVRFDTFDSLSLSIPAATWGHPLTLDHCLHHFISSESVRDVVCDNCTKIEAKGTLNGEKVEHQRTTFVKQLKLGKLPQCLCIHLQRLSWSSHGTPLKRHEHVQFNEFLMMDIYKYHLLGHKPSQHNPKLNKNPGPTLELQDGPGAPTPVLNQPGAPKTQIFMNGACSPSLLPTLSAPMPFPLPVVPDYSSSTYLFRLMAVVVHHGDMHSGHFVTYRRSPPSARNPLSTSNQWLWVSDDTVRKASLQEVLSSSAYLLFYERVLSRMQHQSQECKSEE

Row | IC50 | Structure (SMILES)
1 | 100 to 1000 nM | N#CN1CCOC(C(=O)Nc2cc(-c3cccc(C(F)(F)F)c3)no2)C1 (racemic) [Example 19, 4-Cyano-N-(3-(3-(trifluoro-methyl)phenyl)isoxazol-5-yl)morpholine-2-carboxamide]
2 | 1000 to 10000 nM | N#Cc1cccc(-c2ccnc(NC(=O)C3(F)CCCN(C#N)C3)c2)c1 (racemic) [Example 47, 1-Cyano-N-(4-(3-cyanophenyl)pyridin-2-yl)-3-fluoropiperidine-3-carboxamide]
3 | 100 to 1000 nM | N#CN1CCCC(F)(C(=O)Nc2ccc(-c3ccn[nH]3)cn2)C1 (racemic) [Example 49, N-(5-(1H-Pyrazol-5-yl)pyridin-2-yl)-1-cyano-3-fluoropiperidine-3-carboxamide]
4 | 100 to 1000 nM | N#CN1CCC[C@](F)(C(=O)Nc2cn(-c3cccc(C(F)(F)F)c3)cn2)C1 (stereo in doubt) [Example 80, 1-Cyano-3-fluoro-N-(1-(3-(trifluoromethyl)phenyl)-1H-imidazol-4-yl)piperidine-3-carboxamide]
5 | 100 to 1000 nM | N#CN1CCC[C@](F)(C(=O)Nc2cn(-c3cccc(OC(F)(F)F)c3)cn2)C1 (stereo in doubt) [Example 81, 1-Cyano-3-fluoro-N-(1-(3-(trifluoromethoxy)phenyl)-1H-imidazol-4-yl)piperidine-3-carboxamide]
6 | 100 to 1000 nM | N#CN1CCO[C@@H](C(=O)Nc2cc(-c3ccccc3)ccn2)C1 [Example 1, (R)-4-cyano-N-(4-phenylpyridin-2-yl)morpholine-2-carboxamide]
7 | 100 to 1000 nM | N#CN1CCOC(C(=O)Nc2ncc(-c3ccc(F)cc3)s2)C1 (stereo not shown) [Example 2, 4-Cyano-N-(5-(4-fluorophenyl)thiazol-2-yl)morpholine-2-carboxamide]
8 | 100 to 1000 nM | CCCOc1cc(NC(=O)C2CN(C#N)CCO2)ccc1-c1ccn[nH]1 (stereo not shown) [Example 3, 4-Cyano-N-(3-propoxy-4-(1H-pyrazol-5-yl)phenyl)morpholine-2-carboxamide]
9 | < 100 nM | N#Cc1cccc(-c2cc(NC(=O)[C@H]3CN(C#N)CCO3)ncn2)c1 [Example 4, (R)-4-Cyano-N-(6-(3-cyanophenyl)pyrimidin-4-yl)morpholine-2-carboxamide]
10 | 1000 to 10000 nM | Cn1cc(-c2ccc(NC(=O)C3CN(C#N)CCO3)cc2)cn1 (stereo not shown) [Example 5, 4-Cyano-N-(4-(1-methyl-1H-pyrazol-4-yl)phenyl)morpholine-2-carboxamide]
11 | 100 to 1000 nM | N#CN1CCOC(C(=O)Nc2nc3ccc(-c4cn[nH]c4)cc3s2)C1 (stereo not shown) [Example 7, N-(6-(1H-Pyrazol-4-yl)benzo[d]thiazol-2-yl)-4-cyanomorpholine-2-carboxamide]
12 | 1000 to 10000 nM | COc1cccc(-c2cc(NC(=O)C3CN(C#N)CCO3)on2)c1 (stereo not shown) [Example 10, 4-Cyano-N-(3-(3-methoxyphe-nyl)isoxazol-5-yl)morpholine-2-carboxamide]
13 | 1000 to 10000 nM | N#CN1CCOC(C(=O)Nc2cc(-c3ccccc3)[nH]n2)C1 (stereo not shown) [Example 11, 4-Cyano-N-(5-phenyl-1H-pyrazol-3-yl)morpholine-2-carboxamide]
14 | 1000 to 10000 nM | N#CN1CCOC(C(=O)Nc2ccc(-c3ccccc3)cn2)C1 (stereo not shown) [Example 12, 4-Cyano-N-(5-phenylpyridin-2-yl)morpholine-2-carboxamide]
15 | 1000 to 10000 nM | N#CN1CCOC(C(=O)Nc2cc(-c3ccccc3)on2)C1 (stereo not shown) [Example 13, 4-Cyano-N-(5-phenylisoxazol-3-yl)morpholine-2-carboxamide]
16 | 1000 to 10000 nM | N#Cc1ccnc(-c2ccnc(NC(=O)C3CN(C#N)CCO3)c2)c1 (stereo not shown) [Example 14, 4-Cyano-N-(4-cyano-[2,4′-bipyridin]-2′-yl)morpholine-2-carboxamide]
17 | 1000 to 10000 nM | N#CN1CCOC(C(=O)Nc2ccc(-c3ccccc3)nc2)C1 (stereo not shown) [Example 17, 4-Cyano-N-(6-phenylpyridin-3-yl)morpholine-2-carboxamide]
18 | 100 to 1000 nM | N#Cc1cc(-c2ccnc(NC(=O)C3CN(C#N)CCO3)c2)ccn1 (stereo not shown) [Example 18, 4-Cyano-N-(2′-cyano-[4,4′-bipyridin]-2-yl)morpholine-2-carboxamide]
19 | 100 to 1000 nM | N#CN1CCO[C@@H](C(=O)Nc2ncc(-c3ccccc3)s2)C1 [Example 20, (R)-4-Cyano-N-(5-phenylthiazol-2-yl)morpholine-2-carboxamide]
20 | 100 to 1000 nM | N#CN1CCO[C@@H](C(=O)Nc2cc(-c3cccc(Cl)c3)ncn2)C1 [Example 21, (R)-N-(6-(3-Chlorophenyl)-pyrimidin-4-yl)-4-cyanomorpholine-2-carboxamide]
21 | 1000 to 10000 nM | COc1cccc(-c2cc(NC(=O)[C@H]3CN(C#N)CCO3)ncn2)c1 [Example 22, (R)-4-Cyano-N-(6-(3-methoxy-phenyl)pyrimidin-4-yl)morpholine-2-carboxamide]

Row | IC50 | Structure (SMILES)
22 | 1000 to 10000 nM | CC(C)Oc1cccc(-c2cc(NC(=O)[C@H]3CN(C#N)CCO3)ncn2)c1 [Example 23, (R)-4-Cyano-N-(6-(3-isopropoxy-phenyl)pyrimidin-4-yl)morpholine-2-carboxamide]
23 | 100 to 1000 nM | N#Cc1cc(F)cc(-c2cc(NC(=O)[C@H]3CN(C#N)CCO3)ncn2)c1 [Example 24, (R)-4-Cyano-N-(6-(3-cyano-5-fluoro-phenyl)pyrimidin-4-yl)morpholine-2-carboxamide]
24 | 1000 to 10000 nM | N#Cc1ccc(-c2cc(NC(=O)[C@H]3CN(C#N)CCO3)ncn2)cc1 [Example 25, (R)-4-Cyano-N-(6-(4-cyanophenyl)pyrimidin-4-yl)morpholine-2-carboxamide]
25 | 100 to 1000 nM | N#CN1CCO[C@@H](C(=O)Nc2cc(-c3ccc(Cl)cc3)ncn2)C1 [Example 26, (R)-N-(6-(4-Chlorophenyl)-pyrimidin-4-yl)-4-cyanomorpholine-2-carboxamide]
26 | 1000 to 10000 nM | N#CN1CCO[C@@H](C(=O)Nc2cc(-c3cccc(C(N)=O)c3)ncn2)C1 [Example 27, (R)-N-(6-(3-Carbamoylphenyl)-pyrimidin-4-yl)-4-cyanomorpholine-2-carboxamide]
27 | 1000 to 10000 nM | N#CN1CCO[C@@H](C(=O)Nc2cnc(-c3ccccc3)s2)C1 [Example 28, (R)-4-Cyano-N-(2-phenylthiazol-5-yl)morpholine-2-carboxamide]
28 | 1000 to 10000 nM | N#CN1CCO[C@@H](C(=O)Nc2ccc(-c3ccn[nH]3)cn2)C1 [Example 29, (R)-N-(5-(1H-Pyrazol-5-yl)pyridin-2-yl)-4-cyanomorpholine-2-carboxamide]
29 | 1000 to 10000 nM | N#CN1CCO[C@@H](C(=O)Nc2cc(-c3cccc4[nH]ncc34)ncn2)C1 [Example 30, (R)-N-(6-(1H-indazol-4-yl)pyrimidin-4-yl)-4-cyanomorpholine-2-carboxamide]
30 | 1000 to 10000 nM | N#CN1CCO[C@@H](C(=O)Nc2cc3cc(-c4cn[nH]c4)ccc3cn2)C1 [Example 31, (R)-N-(6-(1H-Pyrazol-4-yl)isoquinolin-3-yl)-4-cyanomorpholine-2-carboxamide]
31 | 1000 to 10000 nM | N#CN1CCO[C@H](C(=O)Nc2ncc(-c3ccccc3)s2)C1 [Example 33, (S)-4-Cyano-N-(5-phenylthiazol-2-yl)morpholine-2-carboxamide]
32 | 1000 to 10000 nM | N#CN1CCO[C@H](C(=O)Nc2cc(-c3ccccc3)ccn2)C1 [Example 35, (S)-4-Cyano-N-(4-phenylpyridin-2-yl)morpholine-2-carboxamide]
33 | 100 to 1000 nM | CCCOc1cc(NC(=O)C2CCCN(C#N)C2)ccc1-c1ccn[nH]1 (stereo not shown) [Example 36, 1-Cyano-N-(3-propoxy-4-(1H-pyrazol-5-yl)phenyl)piperidine-3-carboxamide]
34 | 1000 to 10000 nM | N#CN1CCCC(C(=O)Nc2cc(-c3ccccc3)[nH]n2)C1 (stereo not shown) [Example 38, 1-Cyano-N-(5-phenyl-1H-pyrazol-3-yl)piperidine-3-carboxamide]
35 | 1000 to 10000 nM | N#CN1CCCC(C(=O)Nc2ccc(-c3ccccc3)cn2)C1 (stereo not shown) [Example 39, 1-Cyano-N-(5-phenylpyridin-2-yl)piperidine-3-carboxamide]
36 | 1000 to 10000 nM | N#CN1CCCC(C(=O)Nc2cc(-c3ccccc3)ccn2)C1 (stereo not shown) [Example 40, 1-Cyano-N-(4-phenylpyridin-2-yl)piperidine-3-carboxamide]
37 | 1000 to 10000 nM | N#CN1CCCC(C(=O)Nc2cc(-c3ccccc3)no2)C1 (stereo not shown) [Example 41, 1-Cyano-N-(3-phenylisoxazol-5-yl)piperidine-3-carboxamide]
38 | 100 to 1000 nM | N#CN1CCCC(F)(C(=O)Nc2ncc(-c3ccccc3)s2)C1 (stereo not shown) [Example 42, 1-Cyano-3-fluoro-N-(5-phenylthiazol-2-yl)piperidine-3-carboxamide]
39 | 100 to 1000 nM | N#CN1CCCC(F)(C(=O)Nc2cn(-c3ccccc3)cn2)C1 (stereo not shown) [Example 43, 1-Cyano-3-fluoro-N-(1-phenyl-1H-imidazol-4-yl)piperidine-3-carboxamide]
40 | 100 to 1000 nM | N#CN1CCCC(F)(C(=O)Nc2cc(-c3ccccc3)on2)C1 (stereo not shown) [Example 45, 1-Cyano-3-fluoro-N-(5-phenylisoxazol-3-yl)piperidine-3-carboxamide]
41 | 1000 to 10000 nM | N#CN1CCCC(F)(C(=O)Nc2nc3ccc(-c4cn[nH]c4)cc3s2)C1 (stereo not shown) [Example 50, N-(6-(1H-Pyrazol-4-yl)benzo[d]thiazol-2-yl)-1-cyano-3-fluoropiperidine-3-carboxamide]
42 | 100 to 1000 nM | N#CN1CCO[C@@H](C(=O)Nc2cc(-c3cccc(C(F)(F)F)c3)no2)C1 [Example 51, (R)-4-Cyano-N-(3-(3-(trifluoromethyl)phenyl)isoxazol-5-yl)morpholine-2-carboxamide]

Row | Structure (SMILES) | IC50
43 | N#CN1CCOC(C(=O)Nc2ccc(-c3ccccc3)cc2)C1 (stereo not shown) [Example 9, N-([1,1′-Biphenyl]-4-yl)-4-ycanomorpholine-2-carboxamide] | 1000 to 10000 nM

Source: US11370784B2 (MISSION THERAPEUTICS LIMITED, priority 2016, dated 2022)
